Where “and” joins values, the source holds several entries; their conditions need not be identical. Equal values may be shown once.
Assay: safety assessments (adverse events, NCI CTCAE)
[1] = Grade 3/4 hematologic TRAE, all 165 patients
[2] = TRAE G 3/4, Accelerated phase CML n=38
[3] = TRAE G 3/4, Chronic phase CML n=127
[4] = TRAE any grades, Accelerated phase CML n=38
[5] = TRAE any grades, Chronic phase CML n=127

Protocol: Adverse events were assessed continuously and graded according to NCI CTCAE v5.0.18. Complete blood count with differential, serum chemistries, and physical examinations were performed before the study; weekly during Cycles 1 and 2; on alternate weeks in Cycles 3 and 4; and monthly thereafter.

Cc1ccc(C(=O)Nc2ccc(CN3CCN(C)CC3)c(C(F)(F)F)c2)cc1C#Cc1cnc2[nH]ncc2c1 [olverembatinib]
Anemia [1]: 23.0%
Neutropenia [1]: 11.5%
Thrombocytopenia [1]: 51.5%
Anemia [2]: 12 (31.6) n (%)
Arthralgia [2]: 1 (2.6) n (%)
Asthenia [2]: 0 n (%)
Hematologic [2]: 26 (68.4) n (%)
Hyperbilirubinemia [2]: 1 (2.6) n (%)
Hyperglycemia [2]: 0 n (%)
Hypertriglyceridemia [2]: 1 (2.6) n (%)
Hypoalbuminemia [2]: 0 n (%)
Hypocalcemia [2]: 0 n (%)
Hypokalemia [2]: 1 (2.6) n (%)
Hyponatremia [2]: 0 n (%)
Increased alanine aminotransferase [2]: 1 (2.6) n (%)
Increased alkaline phosphatase [2]: 0 n (%)
Increased aspartate aminotransferase [2]: 2 (5.3) n (%)
Increased creatine phosphokinase [2]: 1 (2.6) n (%)
Increased γ-glutamyl transferase [2]: 0 n (%)
Leukopenia [2]: 13 (34.2) n (%)
Myalgia [2]: 0 n (%)
Neutropenia [2]: 8 (21.1) n (%)
Nonhematologic [2]: 20 (52.6) n (%)
Pain in extremity [2]: 1 (2.6) n (%)
Proteinuria [2]: 1 (2.6) n (%)
Pyrexia [2]: 4 (10.5) n (%)
Rash [2]: 0 n (%)
Sinus tachycardia [2]: 0 n (%)
Skin pigmentation [2]: 0 n (%)
Thrombocytopenia [2]: 23 (60.5) n (%)
Treatment-related adverse events [2]: 34 (89.5) n (%)
Anemia [3]: 26 (20.5) n (%)
Arthralgia [3]: 0 n (%)
Asthenia [3]: 0 n (%)
Hematologic [3]: 67 (52.8) n (%)
Hyperbilirubinemia [3]: 3 (2.4) n (%)
Hyperglycemia [3]: 1 (0.8) n (%)
Hypertriglyceridemia [3]: 11 (8.7) n (%)
Hypoalbuminemia [3]: 0 n (%)
Hypocalcemia [3]: 0 n (%)
Hypokalemia [3]: 1 (0.8) n (%)
Hyponatremia [3]: 1 (0.8) n (%)
Increased alanine aminotransferase [3]: 3 (2.4) n (%)
Increased alkaline phosphatase [3]: 1 (0.8) n (%)
Increased aspartate aminotransferase [3]: 2 (1.6) n (%)
Increased creatine phosphokinase [3]: 10 (7.9) n (%)
Increased γ-glutamyl transferase [3]: 5 (3.9) n (%)
Leukopenia [3]: 21 (16.5) n (%)
Myalgia [3]: 0 n (%)
Neutropenia [3]: 11 (8.7) n (%)
Nonhematologic [3]: 61 (48.0) n (%)
Pain in extremity [3]: 1 (0.8) n (%)
Proteinuria [3]: 5 (3.9) n (%)
Pyrexia [3]: 5 (3.9) n (%)
Rash [3]: 1 (0.8) n (%)
Sinus tachycardia [3]: 0 n (%)
Skin pigmentation [3]: 0 n (%)
Thrombocytopenia [3]: 62 (48.8) n (%)
Treatment-related adverse events [3]: 97 (76.4) n (%)
Anemia (TRAE G 3/4, Total n=165): 38 (23.0) n (%)
Arthralgia (TRAE G 3/4, Total n=165): 1 (0.6) n (%)
Asthenia (TRAE G 3/4, Total n=165): 0 n (%)
Hematologic (TRAE G 3/4, Total n=165): 93 (56.4) n (%)
Hyperbilirubinemia (TRAE G 3/4, Total n=165): 4 (2.4) n (%)
Hyperglycemia (TRAE G 3/4, Total n=165): 1 (0.6) n (%)
Hypertriglyceridemia (TRAE G 3/4, Total n=165): 12 (7.3) n (%)
Hypoalbuminemia (TRAE G 3/4, Total n=165): 0 n (%)
Hypocalcemia (TRAE G 3/4, Total n=165): 0 n (%)
Hypokalemia (TRAE G 3/4, Total n=165): 2 (1.2) n (%)
Hyponatremia (TRAE G 3/4, Total n=165): 1 (0.6) n (%)
Increased alanine aminotransferase (TRAE G 3/4, Total n=165): 4 (2.4) n (%)
Increased alkaline phosphatase (TRAE G 3/4, Total n=165): 1 (0.6) n (%)
Increased aspartate aminotransferase (TRAE G 3/4, Total n=165): 4 (2.4) n (%)
Increased creatine phosphokinase (TRAE G 3/4, Total n=165): 11 (6.7) n (%)
Increased γ-glutamyl transferase (TRAE G 3/4, Total n=165): 5 (3.0) n (%)
Leukopenia (TRAE G 3/4, Total n=165): 34 (20.6) n (%)
Myalgia (TRAE G 3/4, Total n=165): 0 n (%)
Neutropenia (TRAE G 3/4, Total n=165): 19 (11.5) n (%)
Nonhematologic (TRAE G 3/4, Total n=165): 81 (49.1) n (%)
Pain in extremity (TRAE G 3/4, Total n=165): 2 (1.2) n (%)
Proteinuria (TRAE G 3/4, Total n=165): 6 (3.6) n (%)
Pyrexia (TRAE G 3/4, Total n=165): 9 (5.5) n (%)
Rash (TRAE G 3/4, Total n=165): 1 (0.6) n (%)
Sinus tachycardia (TRAE G 3/4, Total n=165): 0 n (%)
Skin pigmentation (TRAE G 3/4, Total n=165): 0 n (%)
Thrombocytopenia (TRAE G 3/4, Total n=165): 85 (51.5) n (%)
Treatment-related adverse events (TRAE G 3/4, Total n=165): 131 (79.4%) n (%) and 131 (79.4) n (%)
Anemia [4]: 24 (63.2) n (%)
Arthralgia [4]: 8 (21.1) n (%)
Asthenia [4]: 6 (15.8) n (%)
Hematologic [4]: 36 (94.7) n (%)
Hyperbilirubinemia [4]: 13 (34.2) n (%)
Hyperglycemia [4]: 10 (26.3) n (%)
Hypertriglyceridemia [4]: 23 (60.5) n (%)
Hypoalbuminemia [4]: 6 (15.8) n (%)
Hypocalcemia [4]: 19 (50.0) n (%)
Hypokalemia [4]: 10 (26.3) n (%)
Hyponatremia [4]: 10 (26.3) n (%)
Increased alanine aminotransferase [4]: 9 (23.7) n (%)
Increased alkaline phosphatase [4]: 5 (13.2) n (%)
Increased aspartate aminotransferase [4]: 10 (26.3) n (%)
Increased creatine phosphokinase [4]: 5 (13.2) n (%)
Increased γ-glutamyl transferase [4]: 9 (23.7) n (%)
Leukopenia [4]: 19 (50.0) n (%)
Myalgia [4]: 8 (21.1) n (%)
Neutropenia [4]: 8 (21.1) n (%)
Nonhematologic [4]: 38 (100.0) n (%)
Pain in extremity [4]: 7 (18.4) n (%)
Proteinuria [4]: 19 (50.0) n (%)
Pyrexia [4]: 9 (23.7) n (%)
Rash [4]: 8 (21.1) n (%)
Sinus tachycardia [4]: 7 (18.4) n (%)
Skin pigmentation [4]: 31 (81.6) n (%)
Thrombocytopenia [4]: 33 (86.8) n (%)
Treatment-related adverse events [4]: 38 (100.0) n (%)
Anemia [5]: 66 (52.0) n (%)
Arthralgia [5]: 11 (8.7) n (%)
Asthenia [5]: 12 (9.4) n (%)
Hematologic [5]: 102 (80.3) n (%)
Hyperbilirubinemia [5]: 56 (44.1) n (%)
Hyperglycemia [5]: 33 (26.0) n (%)
Hypertriglyceridemia [5]: 72 (56.7) n (%)
Hypoalbuminemia [5]: 20 (15.7) n (%)
Hypocalcemia [5]: 45 (35.4) n (%)
Hypokalemia [5]: 32 (25.2) n (%)
Hyponatremia [5]: 28 (22.0) n (%)
Increased alanine aminotransferase [5]: 50 (39.4) n (%)
Increased alkaline phosphatase [5]: 16 (12.6) n (%)
Increased aspartate aminotransferase [5]: 49 (38.6) n (%)
Increased creatine phosphokinase [5]: 43 (33.9) n (%)
Increased γ-glutamyl transferase [5]: 38 (29.9) n (%)
Leukopenia [5]: 37 (29.1) n (%)
Myalgia [5]: 23 (18.1) n (%)
Neutropenia [5]: 18 (14.2) n (%)
Nonhematologic [5]: 127 (100.0) n (%)
Pain in extremity [5]: 14 (11.0) n (%)
Proteinuria [5]: 65 (51.2) n (%)
Pyrexia [5]: 21 (16.5) n (%)
Rash [5]: 19 (15.0) n (%)
Sinus tachycardia [5]: 23 (18.1) n (%)
Skin pigmentation [5]: 108 (85.0) n (%)
Thrombocytopenia [5]: 93 (73.2) n (%)
Treatment-related adverse events [5]: 127 (100.0) n (%)
Anemia (TRAE any grades, Total n=165): 90 (54.5) n (%)
Arthralgia (TRAE any grades, Total n=165): 19 (11.5) n (%)
Asthenia (TRAE any grades, Total n=165): 18 (10.9) n (%)
